Experimental data reported in patent US20230000876A1, “TREATING CANCERS WITH A CYCLIN-DEPENDENT KINASE INHIBITOR” (Nuvation Bio Inc., priority 2021, published 2023).

Legend:
KM12-luc = assay: CellTiter-Glo anti-proliferation assay, KM12-luc; assay type: cell-based
Method: The anti-proliferation effect of 2 compounds (the compound of formula (I) and temozolomide) in 7 CNS metastasis cell lines (MOLT-4-luc, Nalm-6-luc, NCI-H460-luc, ACHN-luc2, PC-9-luc, H1975-luc, and KM12-luc) was evaluated.
The plating of cells and compound treatments are shown below in the plate map (Table 12). One plate was needed for the test of 2 compounds (the compound of formula (I) and temozolomide) in one cell line. The compound of formula (I) was tested from 10 μM, 3-fold serial dilution. Temozolomide was tested from 100 μM, 3-fold serial dilution.
All the cell lines were maintained in culture conditions at 37° C. in an atmosphere with 5% CO2 in air. The tumor cells were routinely subcultured. The cells growing in an exponential growth phase were harvested and counted for plating.
Cells were counted by haemocytometer with Trypan blue staining. Next, 135 μL of cell suspension were plated into the assay plates according to the plate map and 135 μL of assay medium into the blank wells. The plates were incubated at 37° C., 5% CO2, 95% air and 100% relative humidity overnight.
4.4.4 Compound Plate (10×) Preparation and Compound Treatment • 10× concentrate compound plate preparation: Add 198 μL of assay medium into each well of the V-bottom plate; then transfer 2 μL of the stock compound solution of each concentration from the stock plate. Add 2 μL of DMSO into the Blank and Control wells. Pipette up and down to mix well. This V-plate is designated as the 10× concentrate compound plate. • For day 0 plate, add 15 μL of the DMSO-medium into the Control wells. The final DMSO concentration was 0.1%. Then directly proceed to cell viability assay. • For assay plate, add 15 μL of the compound-medium of each well from the 10× concentrate compound plate into the cells in 96-well assay plate according to the plate map. Add 15 μL of the DMSO-medium into the Blank and Control wells. The final DMSO concentration was 0.1%. • Return the assay plate into incubator and incubate for 6 days.
The procedures were performed according to the Promega CellTiter-Glo Luminescent Cell Viability Assay Kit manual (Promega-G7573). • The CellTiter-Glo buffer was thawed and equilibrated to room temperature prior to use. • CellTiter-Glo Substrate was equilibrated to room temperature prior to use. • The entire liquid volume of CellTiter-Glo Buffer was transferred into the amber bottle containing CellTiter-Glo Substrate to reconstitute the lyophilized enzyme/substrate mixture. This forms the CellTiter-Glo Reagent. • The contents were mixed by gently vortexing to obtain a homogeneous solution. • The plate was equilibrated and its contents to room temperature for approximately 30 minutes. 75 μL (equal to the half volume of culture medium present in each well) CellTiter-Glo • Reagent was added in each well. Plates were covered with aluminum foil to protect from light. • The contents were mixed for 2 minutes on an orbital shaker to induce cell lysis. • The plate was incubated at room temperature for 20 minutes to stabilize luminescent signal. • Record luminescence on the 2104 EnVision plate reader.
(§1) Inhibition rate (IR) of the tested compounds was determined by the following formula: IR (%)=(1−(RLU compound−RLU day0)/(RLU control−RLU day0))*100%. The inhibitions of different dose of compound were calculated in Excel file, and then were used to plot inhibition curves and evaluate related parameters, such as Min (%), Max (%) and GI50. The data were interpreted by GraphPad Prism.

[1] = system: 7 melanoma cell lines (A375, COLO 829, SK-MEL-3, SK-MEL-5, SK-MEL-24, SK-MEL-28, SK-MEL-31); assay: Anti-proliferation assay, 7 melanoma cell lines taken together; assay type: cell-based
Method: as §1
The anti-proliferation effect of the compound of formula (I) in 7 CNS melanoma cell lines was evaluated.

[2] = inhibition rate, 6 days, Compound (I) from 10 μM, temozolomide from 100 μM, 3-fold, 9 points

Compound: CC(C)N1CCOc2c(F)cc(-c3nc(Nc4ccc(C5CCN(C)CC5)cn4)ncc3F)cc21 [Compound (I), 5-fluoro-4-(8-fluoro-4-isopropyl-3,4-dihydro-2H-benzo[b][1,4]oxazin-6-yl)-N-(5-(1-methylpiperidin-4-yl)pyridin-2-yl)pyrimidin-2-amine]
- GI50 (KM12-luc; KM12-Luc, 144 h, 6 days incubation, read-out: Absolute GI50): 654 nM
- Max (%) (KM12-luc; [2]): 111.2%
- Min (%) (KM12-luc; [2]): −15.2%
- Inhibitory effect in cell viability assay [1]: significant inhibitory effects
- GI50 ([1]; read-out: Absolute GI50 values, range over 7 cell lines): 156 to 1240 nM
